Assay [1] concerns the target T1, FLT3(D835V) (Homo sapiens, UniProt P36888, D835V).
T1 sequence (P36888 27-993 D835V): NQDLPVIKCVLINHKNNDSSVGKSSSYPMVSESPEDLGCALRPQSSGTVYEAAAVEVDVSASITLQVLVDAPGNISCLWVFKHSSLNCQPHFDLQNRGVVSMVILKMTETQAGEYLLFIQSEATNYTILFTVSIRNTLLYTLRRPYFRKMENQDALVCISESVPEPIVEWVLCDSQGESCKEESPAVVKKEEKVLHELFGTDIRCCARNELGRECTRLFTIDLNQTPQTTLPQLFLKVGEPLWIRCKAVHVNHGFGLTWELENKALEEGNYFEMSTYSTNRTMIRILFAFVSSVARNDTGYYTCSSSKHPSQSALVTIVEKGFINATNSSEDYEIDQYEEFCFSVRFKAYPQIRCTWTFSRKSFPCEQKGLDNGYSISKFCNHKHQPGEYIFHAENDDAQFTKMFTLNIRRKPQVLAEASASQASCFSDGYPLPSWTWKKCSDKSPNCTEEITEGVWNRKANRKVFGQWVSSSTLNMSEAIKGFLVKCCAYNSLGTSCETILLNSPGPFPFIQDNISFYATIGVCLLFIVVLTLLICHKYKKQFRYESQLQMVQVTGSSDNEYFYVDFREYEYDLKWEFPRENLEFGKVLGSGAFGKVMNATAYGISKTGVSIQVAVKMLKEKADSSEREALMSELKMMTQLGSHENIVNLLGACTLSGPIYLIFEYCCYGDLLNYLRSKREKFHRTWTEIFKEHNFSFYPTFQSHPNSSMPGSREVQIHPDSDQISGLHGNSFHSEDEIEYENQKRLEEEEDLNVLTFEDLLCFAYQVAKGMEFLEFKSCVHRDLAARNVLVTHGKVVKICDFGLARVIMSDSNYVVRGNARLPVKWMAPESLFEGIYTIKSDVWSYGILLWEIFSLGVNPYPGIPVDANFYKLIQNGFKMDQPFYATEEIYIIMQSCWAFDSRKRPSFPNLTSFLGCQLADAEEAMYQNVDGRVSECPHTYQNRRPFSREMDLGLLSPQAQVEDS
In words: KinomeScan profiling. Format: binding. The note with it: read-out: % control. An outline of the steps:
(§1)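 At 1 μM in DMSO, compounds are run through a broad 468-member kinase panel. The luminescent read-out is normalised so that vehicle gives 100% and a positive control gives 0%; any kinase falling below 35% is treated as a target.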

The target of assay [2] is T2, PIK3C2G (Homo sapiens, UniProt O75747).
T2 construct: purchased KinomeScan® (panel service)
T2 sequence (O75747 1-1486): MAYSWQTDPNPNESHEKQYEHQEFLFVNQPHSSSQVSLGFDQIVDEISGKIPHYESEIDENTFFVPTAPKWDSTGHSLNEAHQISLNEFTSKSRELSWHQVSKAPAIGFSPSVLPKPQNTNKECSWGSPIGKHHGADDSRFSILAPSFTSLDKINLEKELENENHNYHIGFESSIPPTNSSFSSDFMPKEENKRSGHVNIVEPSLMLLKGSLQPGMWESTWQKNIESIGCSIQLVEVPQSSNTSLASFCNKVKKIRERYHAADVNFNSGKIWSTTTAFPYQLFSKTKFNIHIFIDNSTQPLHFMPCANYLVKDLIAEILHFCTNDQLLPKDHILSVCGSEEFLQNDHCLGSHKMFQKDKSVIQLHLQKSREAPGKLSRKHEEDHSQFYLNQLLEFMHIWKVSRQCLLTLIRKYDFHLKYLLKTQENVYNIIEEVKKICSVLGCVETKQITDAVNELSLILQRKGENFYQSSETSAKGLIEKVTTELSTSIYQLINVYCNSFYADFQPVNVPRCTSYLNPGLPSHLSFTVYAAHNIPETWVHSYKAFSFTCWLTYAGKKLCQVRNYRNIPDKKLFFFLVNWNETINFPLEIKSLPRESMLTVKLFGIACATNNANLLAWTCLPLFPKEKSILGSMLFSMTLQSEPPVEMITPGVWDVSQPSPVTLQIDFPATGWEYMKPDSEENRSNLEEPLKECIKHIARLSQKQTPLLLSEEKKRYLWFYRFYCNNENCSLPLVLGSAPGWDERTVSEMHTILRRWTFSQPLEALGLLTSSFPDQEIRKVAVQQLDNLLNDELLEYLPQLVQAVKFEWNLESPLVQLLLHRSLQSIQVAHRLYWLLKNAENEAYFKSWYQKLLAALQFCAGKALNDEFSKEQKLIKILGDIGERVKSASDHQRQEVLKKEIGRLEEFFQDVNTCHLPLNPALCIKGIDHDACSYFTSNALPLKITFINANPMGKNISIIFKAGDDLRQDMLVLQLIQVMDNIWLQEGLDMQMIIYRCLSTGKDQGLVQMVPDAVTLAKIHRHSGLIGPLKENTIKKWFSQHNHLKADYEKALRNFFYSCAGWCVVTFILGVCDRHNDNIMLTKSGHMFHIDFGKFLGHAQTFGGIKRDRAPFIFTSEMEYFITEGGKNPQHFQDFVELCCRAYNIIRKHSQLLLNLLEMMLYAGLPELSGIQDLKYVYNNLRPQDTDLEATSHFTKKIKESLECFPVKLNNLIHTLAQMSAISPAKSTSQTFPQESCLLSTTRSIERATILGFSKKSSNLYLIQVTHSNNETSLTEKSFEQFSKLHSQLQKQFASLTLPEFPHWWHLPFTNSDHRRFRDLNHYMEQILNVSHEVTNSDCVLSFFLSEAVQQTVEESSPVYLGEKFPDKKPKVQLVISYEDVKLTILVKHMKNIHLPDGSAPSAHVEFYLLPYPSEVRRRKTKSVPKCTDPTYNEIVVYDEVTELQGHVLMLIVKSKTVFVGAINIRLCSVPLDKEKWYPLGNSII
In words: KinomeScan profiling. In kind it is binding. To be noted: read-out: % control. An outline of the steps:
as §1

For the compound `CNc1c(-c2ccc(C(=O)N3CCC(N4CCOCC4)CC3)cc2)cnc2[nH]cc(Cl)c12` [Compound 96, (4-(3-chloro-4-(methylamino)-1H-pyrrolo[2,3-b]pyridin-5-yl)phenyl)(4-morpholinopiperidin-1-yl)methanone], the remaining binding at 1 µM in assay [1] is 2.9%; in assay [2], 94%.

Turning to `O=C(c1ccc(-c2cnc3[nH]cc(Cl)c3c2NC2CCCC2)cc1)N1CCC(N2CCOCC2)CC1` [Compound 101, (4-(3-chloro-4-(cyclopentylamino)-1H-pyrrolo[2,3-b]pyridin-5-yl)phenyl)(4-morpholinopiperidin-1-yl)methanone], the values for the remaining binding at 1 µM in assay [1] and in assay [2] were 6.4% and 92%, respectively.

`CNc1c(-c2cnn([C@H]3CCN(C(C)=O)C[C@@H]3F)c2)cnc2[nH]cc(Cl)c12` [Compound 77, 1-((3S,4S)-4-(4-(3-chloro-4-(methylamino)-1H-pyrrolo[2,3-b]pyridin-5-yl)-1H-pyrazol-1-yl)-3-fluoropiperidin-1-yl)ethan-1-one]: the remaining binding at 1 µM in assay [1] worked out at 0.5%; in assay [2] it was 100%.
